# Experimental data as given in US20230061736A1, “GPR119 AGONISTS” (Kallyope, Inc., priority 2019, published 2023).
# Target: T1, human GPR119 (hGPR119) (Homo sapiens, UniProt Q8TDV5)
# T1 construct: expressed in transfected cells
# T1 sequence (Q8TDV5 1-335): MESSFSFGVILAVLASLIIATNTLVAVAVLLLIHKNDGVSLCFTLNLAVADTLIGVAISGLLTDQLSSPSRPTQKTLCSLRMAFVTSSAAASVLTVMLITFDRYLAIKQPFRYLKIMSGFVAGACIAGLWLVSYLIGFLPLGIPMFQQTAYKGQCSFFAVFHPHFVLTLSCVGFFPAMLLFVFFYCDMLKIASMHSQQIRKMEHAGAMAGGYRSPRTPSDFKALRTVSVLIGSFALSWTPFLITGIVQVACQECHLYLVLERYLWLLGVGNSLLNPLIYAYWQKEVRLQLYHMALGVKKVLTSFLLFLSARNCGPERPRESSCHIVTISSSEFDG
# Assay: cAMP accumulation assay (cAMP Gs dynamic HTRF kit)
# Type: cell-based
# Settings: CHO-K1 cells stably expressing hGPR119, 4-parameter fit; for Emax: 1 h, % activity normalized to Max/Min controls; for EC50: cAMP accumulation
# Outline: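 CHO-K1 cells stably expressing hGPR119, used as assay-ready frozen stocks at ~10,000 cells/well, exposed to compound dose-response in stimulation buffer with Tween 80 for 60 min at 37° C. cAMP read by HTRF (665/620 nm ratio), normalised to Max/Min controls; EC50 and Max activity from 4-parameter fit.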
Structure (SMILES),Emax,EC50
"O=C(NC(CO)(CO)CO)C1CN(C(=O)Cc2c(F)cc(OCCCC3CCN(c4ncc(Cl)cn4)CC3)cc2F)C1 [Example 26, 1-[2-[4-[3-[1-(5-chloropyrimidin-2-yl)-4-piperidyl]propoxy]-2,6-difluoro-phenyl]acetyl]-N-[2-hydroxy-1,1-bis(hydroxymethyl)ethyl]azetidine-3-carboxamide]",≥ 130%,≤ 100 nM
"O=C(Cc1ccc(OCCCC2CCN(c3ncc(Cl)cn3)CC2)cc1F)N1CC[C@H](CNC[C@H](O)[C@@H](O)[C@H](O)[C@H](O)CO)C1 [Example 100, 2-[4-[3-[1-(5-chloropyrimidin-2-yl)-4-piperidyl]propoxy]-2-fluoro-phenyl]-1-[(3R)-3-[[[(2S,3R,4R,5R)-2,3,4,5,6-pentahydroxyhexyl]amino]methyl]pyrrolidin-1-yl]ethanone]",100 to 130%,≤ 100 nM
"O=C(Cc1ccc(OCCCC2CCN(c3ncc(Cl)cn3)CC2)cc1F)N1CC(O)(CNC[C@H](O)[C@H](O)[C@H](O)CO)C1 [Example 185, 2-[4-[3-[1-(5-chloropyrimidin-2-yl)-4-piperidyl]propoxy]-2-fluoro-phenyl]-1-[3-hydroxy-3-[[[(2S,3S,4R)-2,3,4,5-tetrahydroxypentyl]amino]methyl]azetidin-1-yl]ethanone]",100 to 130%,≤ 100 nM
"O=C(Cc1ccc(CC(=O)N2CC(CNC[C@H](O)[C@@H](O)[C@H](O)[C@H](O)CO)C2)c(F)c1)OCCC1CCN(c2ncc(Cl)cn2)CC1 (racemic) [Example 92, 2-[1-(5-chloropyrimidin-2-yl)-4-piperidyl]ethyl 2-[3-fluoro-4-[2-oxo-2-[3-[[[rac-(2S,3R,4R,5R)-2,3,4,5,6-pentahydroxyhexyl]amino]methyl]azetidin-1-yl]ethyl]phenyl]acetate]",100 to 130%,100 to 1000 nM
"O=C(Cc1ccc(OCCCC2CCN(c3ncc(Cl)cn3)CC2)cc1F)N1CC[C@@H](CNC[C@H](O)[C@@H](O)[C@H](O)[C@H](O)CO)C1 [Example 98, 2-[4-[3-[1-(5-chloropyrimidin-2-yl)-4-piperidyl]propoxy]-2-fluoro-phenyl]-1-[(3S)-3-[[[(2S,3R,4R,5R)-2,3,4,5,6-pentahydroxyhexyl]amino]methyl]pyrrolidin-1-yl]ethanone]",100 to 130%,≤ 100 nM
"O=C(Cc1ccc(OCCCC2CC3(CCN(c4ncc(Cl)cn4)CC3)C2)cc1F)N1CC(CNC[C@H](O)[C@@H](O)[C@H](O)[C@H](O)CO)C1 [Example 105, 2-[4-[3-[7-(5-chloropyrimidin-2-yl)-7-azaspiro[3.5]nonan-2-yl]propoxy]-2-fluoro-phenyl]-1-[3-[[[(2S,3R,4R,5R)-2,3,4,5,6-pentahydroxyhexyl]amino]methyl]azetidin-1-yl]ethanone]",100 to 130%,≤ 100 nM
"CC(C)OC(=O)N1CCC2(CCC2CCOc2cc(F)c(CC(=O)N3CC(CNC[C@H](O)[C@@H](O)[C@H](O)[C@H](O)CO)C3)c(F)c2)CC1 (stereo partly drawn) [Example 141, isopropyl 3-[2-[3,5-difluoro-4-[2-oxo-2-[3-[[[(2S,3R,4R,5R)-2,3,4,5,6-pentahydroxyhexyl]amino]methyl]azetidin-1-yl]ethyl]phenoxy]ethyl]-7-azaspiro[3.5]nonane-7-carboxylate]",50 to 100%,1000 to 10000 nM
"O=C(Cc1c(F)cc(OCCC2CCC23CCN(c2ncc(Cl)cn2)CC3)cc1F)N1CC(CNC[C@H](O)[C@@H](O)[C@H](O)[C@H](O)CO)C1 (stereo partly drawn) [Example 139, 2-[4-[2-[7-(5-chloropyrimidin-2-yl)-7-azaspiro[3.5]nonan-3-yl]ethoxy]-2,6-difluoro-phenyl]-1-[3-[[[(2S,3R,4R,5R)-2,3,4,5,6-pentahydroxyhexyl]amino]methyl]azetidin-1-yl]ethanone]",100 to 130%,100 to 1000 nM
"COCc1cnc(N2CCC([C@H]3C[C@H]3CCOc3ccc(CC(=O)N4CC[C@@H](CNCC(CO)(CO)CO)C4)c(F)c3)CC2)nc1 [Example 163, 2-[2-fluoro-4-[2-[(1S,2R)-2-[1-[5-(methoxymethyl)pyrimidin-2-yl]-4-piperidyl]cyclopropyl]ethoxy]phenyl]-1-[(3S)-3-[[[3-hydroxy-2,2-bis(hydroxymethyl)propyl]amino]methyl]pyrrolidin-1-yl]ethanone]",100 to 130%,≤ 100 nM
"CC(C)OC(=O)N1CCC(CCCOc2ccc(CC(=O)N3CC(CNC[C@H](O)[C@@H](O)[C@H](O)[C@H](O)CO)C3)c(F)c2)CC1 [Example 112, isopropyl 4-[3-[3-fluoro-4-[2-oxo-2-[3-[[[(2S,3R,4R,5R)-2,3,4,5,6-pentahydroxyhexyl]amino]methyl]azetidin-1-yl]ethyl]phenoxy]propyl] piperidine-1-carboxylate]",100 to 130%,100 to 1000 nM
"COCC1(C(=O)NCC(CO)(CO)CO)CCN(C(=O)Cc2ccc(OCCCC3CCN(c4ncc(Cl)cn4)CC3)cc2F)C1 (stereo not drawn) [Example 137, 1-[2-[4-[3-[1-(5-chloropyrimidin-2-yl)-4-piperidyl]propoxy]-2-fluoro-phenyl]acetyl]-N-[3-hydroxy-2,2-bis(hydroxymethyl)propyl]-3-(methoxymethyl)pyrrolidine-3-carboxamide]",100 to 130%,≤ 100 nM
"O=C(CC1CN(C(=O)Cc2ccc(OCCCC3CCN(c4ncc(Cl)cn4)CC3)cc2F)C1)NCCCS(=O)(=O)O [Example 177, 3-[[2-[1-[2-[4-[3-[1-(5-chloropyrimidin-2-yl)-4-piperidyl]propoxy]-2-fluoro-phenyl]acetyl]azetidin-3-yl]acetyl]amino]propane-1-sulfonic acid]",100 to 130%,100 to 1000 nM
"CCc1cnc(N2CCC(CCCOc3cc(F)c(CC(=O)NC(CO)(CO)CO)c(F)c3)CC2)nc1 [Example 7, 2-[4-[3-[1-(5-ethylpyrimidin-2-yl)-4-piperidyl]propoxy]-2,6-difluoro-phenyl]-N-[2-hydroxy-1,1-bis(hydroxymethyl)ethyl]acetamide]",100 to 130%,≤ 100 nM
"CCCc1cnc(N2CCC(CCCOc3cc(F)c(CC(=O)N4CC(CNC(CO)(CO)CO)C4)c(F)c3)CC2)nc1 [Example 76, 2-(2,6-difluoro-4-(3-(1-(5-propylpyrimidin-2-yl)piperidin-4-yl)propoxy)phenyl)-1-(3-(((1,3-dihydroxy-2-(hydroxymethyl)propan-2-yl)amino)methyl)azetidin-1-yl)ethan-1-one]",≥ 130%,≤ 100 nM
"O=C(Cc1ccc(OCCCC2CCN(c3ncc(Cl)cn3)CC2)cc1F)N1CC(CN2C[C@@H](O)[C@@H](O)[C@@H](O)C2)C1 [Example 50, 2-[4-[3-[1-(5-chloropyrimidin-2-yl)-4-piperidyl]propoxy]-2-fluoro-phenyl]-1-[3-[[rac-(3R,5S)-3,4,5-trihydroxy-1-piperidyl]methyl]azetidin-1-yl]ethanone]",100 to 130%,≤ 100 nM
"O=C(Cc1ccc(OCCC2CC3(CCN(c4ncc(Cl)cn4)CC3)C2)cc1F)N1CC(CNC[C@H](O)[C@@H](O)[C@H](O)[C@H](O)CO)C1 [Example 104, 2-[4-[2-[7-(5-chloropyrimidin-2-yl)-7-azaspiro[3.5]nonan-2-yl]ethoxy]-2-fluoro-phenyl]-1-[3-[[[(2S,3R,4R,5R)-2,3,4,5,6-pentahydroxyhexyl]amino]methyl]azetidin-1-yl]ethanone]",100 to 130%,100 to 1000 nM
"CCCc1cnc(N2CCC(CCCOc3cc(F)c(CC(=O)NC(CO)(CO)CO)c(F)c3)CC2)nc1 [Example 8, 2-[2,6-difluoro-4-[3-[1-(5-propylpyrimidin-2-yl)-4-piperidyl]propoxy]phenyl]-N-[2-hydroxy-1,1-bis(hydroxymethyl)ethyl]acetamide]",100 to 130%,≤ 100 nM
"O=C(NC(CO)(CO)CO)[C@H]1CCN(C(=O)Cc2ccc(OCCCC3CCN(c4ncc(Cl)cn4)CC3)cc2F)C1 [Example 103, (3S)-1-[2-[4-[3-[1-(5-chloropyrimidin-2-yl)-4-piperidyl]propoxy]-2-fluoro-phenyl]acetyl]-N-[2-hydroxy-1,1-bis(hydroxymethyl)ethyl]pyrrolidine-3-carboxamide]",100 to 130%,≤ 100 nM
"CCc1cnc(N2CCC(CCCOc3ccc(CC(=O)N4CC(CNCC(CO)CO)C4)c(F)c3)CC2)nc1 [Example 62, 2-(4-(3-(1-(5-ethylpyrimidin-2-yl)piperidin-4-yl)propoxy)-2-fluorophenyl)-1-(3-(((3-hydroxy-2-(hydroxymethyl)propyl)amino)methyl)azetidin-1-yl)ethan-1-one]",≥ 130%,100 to 1000 nM
"O=C(Cc1c(F)cc(OCCCC2CCN(c3ncc(Cl)cn3)CC2)cc1F)N1CCC(O)(CNCC(CO)(CO)CO)C1 (stereo not drawn) [Example 188, 2-[4-[3-[1-(5-chloropyrimidin-2-yl)-4-piperidyl]propoxy]-2,6-difluoro-phenyl]-1-[3-hydroxy-3-[[[3-hydroxy-2,2-bis(hydroxymethyl)propyl]amino]methyl]pyrrolidin-1-yl]ethanone]",100 to 130%,≤ 100 nM
"CC1(CCCCOc2ccc(CC(=O)N3CC(CNC[C@H](O)[C@@H](O)[C@H](O)[C@H](O)CO)C3)c(F)c2)CCN(c2ncc(Cl)cn2)CC1 [Example 109, 2-[4-[4-[1-(5-chloropyrimidin-2-yl)-4-methyl-4-piperidyl]butoxy]-2-fluoro-phenyl]-1-[3-[[[(2S,3R,4R,5R)-2,3,4,5,6-pentahydroxyhexyl]amino]methyl]azetidin-1-yl]ethanone]",100 to 130%,100 to 1000 nM
